Measurements as given in ChEMBL document CHEMBL1155185, “Design, synthesis, screening, and molecular modeling study of a new series of ROS1 receptor tyrosine kinase inhibitors” (Bioorg Med Chem Lett, 2009).

Biological target: Proto-oncogene tyrosine-protein kinase ROS (Homo sapiens) (UniProt P08922)
Experiment: Inhibition of ROS1 at 20 uM by HotSpot assay

Proto-oncogene tyrosine-protein kinase ROS (Homo sapiens), sequence (P08922 whole entry): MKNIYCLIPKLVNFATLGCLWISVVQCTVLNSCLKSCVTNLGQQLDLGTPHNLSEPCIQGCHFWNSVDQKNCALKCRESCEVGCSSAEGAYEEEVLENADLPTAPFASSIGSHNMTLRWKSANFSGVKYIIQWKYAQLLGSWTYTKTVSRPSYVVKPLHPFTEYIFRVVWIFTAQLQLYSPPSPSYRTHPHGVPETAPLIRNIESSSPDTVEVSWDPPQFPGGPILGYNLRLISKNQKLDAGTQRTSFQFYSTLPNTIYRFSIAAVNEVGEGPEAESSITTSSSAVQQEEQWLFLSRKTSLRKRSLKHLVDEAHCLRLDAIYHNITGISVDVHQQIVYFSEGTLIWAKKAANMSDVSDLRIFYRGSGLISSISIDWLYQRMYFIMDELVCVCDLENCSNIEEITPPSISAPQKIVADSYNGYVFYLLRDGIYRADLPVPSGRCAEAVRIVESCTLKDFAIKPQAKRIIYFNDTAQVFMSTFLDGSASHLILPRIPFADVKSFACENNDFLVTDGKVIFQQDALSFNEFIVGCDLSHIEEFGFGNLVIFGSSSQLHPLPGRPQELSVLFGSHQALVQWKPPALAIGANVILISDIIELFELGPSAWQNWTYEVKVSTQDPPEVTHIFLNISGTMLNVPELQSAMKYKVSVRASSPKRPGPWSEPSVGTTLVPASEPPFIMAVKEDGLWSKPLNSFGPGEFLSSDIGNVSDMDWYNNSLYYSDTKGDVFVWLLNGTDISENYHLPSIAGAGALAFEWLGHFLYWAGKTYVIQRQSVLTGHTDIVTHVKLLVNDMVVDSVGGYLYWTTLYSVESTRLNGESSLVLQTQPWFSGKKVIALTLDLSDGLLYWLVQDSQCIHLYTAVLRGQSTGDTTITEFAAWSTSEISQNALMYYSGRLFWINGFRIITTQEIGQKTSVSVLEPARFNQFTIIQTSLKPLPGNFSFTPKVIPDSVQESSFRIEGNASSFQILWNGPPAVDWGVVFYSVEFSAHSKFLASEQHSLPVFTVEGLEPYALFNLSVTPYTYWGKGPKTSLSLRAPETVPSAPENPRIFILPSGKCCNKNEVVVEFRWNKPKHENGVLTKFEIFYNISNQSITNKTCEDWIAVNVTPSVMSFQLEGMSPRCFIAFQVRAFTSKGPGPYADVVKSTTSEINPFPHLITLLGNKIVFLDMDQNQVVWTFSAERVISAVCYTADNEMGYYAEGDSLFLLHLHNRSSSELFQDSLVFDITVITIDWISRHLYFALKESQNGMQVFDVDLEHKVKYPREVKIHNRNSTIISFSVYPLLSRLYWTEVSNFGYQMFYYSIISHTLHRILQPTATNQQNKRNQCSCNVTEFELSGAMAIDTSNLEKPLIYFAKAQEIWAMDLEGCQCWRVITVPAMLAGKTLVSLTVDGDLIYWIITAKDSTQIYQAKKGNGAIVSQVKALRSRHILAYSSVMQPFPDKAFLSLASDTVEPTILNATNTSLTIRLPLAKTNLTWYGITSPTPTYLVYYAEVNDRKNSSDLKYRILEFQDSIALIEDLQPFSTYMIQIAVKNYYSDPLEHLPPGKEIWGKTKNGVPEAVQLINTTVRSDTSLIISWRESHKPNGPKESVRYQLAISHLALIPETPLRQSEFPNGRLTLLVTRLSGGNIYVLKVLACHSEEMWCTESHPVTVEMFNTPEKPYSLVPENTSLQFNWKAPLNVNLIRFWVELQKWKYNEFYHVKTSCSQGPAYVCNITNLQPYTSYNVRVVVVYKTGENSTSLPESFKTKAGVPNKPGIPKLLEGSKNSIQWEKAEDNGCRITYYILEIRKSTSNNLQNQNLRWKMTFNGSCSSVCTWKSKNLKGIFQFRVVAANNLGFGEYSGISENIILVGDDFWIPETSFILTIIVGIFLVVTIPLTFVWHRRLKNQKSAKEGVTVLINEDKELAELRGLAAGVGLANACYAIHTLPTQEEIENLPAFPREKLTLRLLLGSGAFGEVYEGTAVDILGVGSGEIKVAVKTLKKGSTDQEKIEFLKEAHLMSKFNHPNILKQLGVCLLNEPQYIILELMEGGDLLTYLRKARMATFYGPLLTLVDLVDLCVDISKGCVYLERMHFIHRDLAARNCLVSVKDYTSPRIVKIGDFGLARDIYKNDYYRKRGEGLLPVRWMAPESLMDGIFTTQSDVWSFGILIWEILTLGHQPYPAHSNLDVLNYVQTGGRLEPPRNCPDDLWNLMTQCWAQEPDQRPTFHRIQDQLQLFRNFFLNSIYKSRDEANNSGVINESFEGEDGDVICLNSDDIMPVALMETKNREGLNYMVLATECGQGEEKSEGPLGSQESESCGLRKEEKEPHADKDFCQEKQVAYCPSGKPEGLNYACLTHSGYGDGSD

inhibition, 96%:
Cc1cc(O)cc(-c2nn(CC#N)cc2-c2ccnc(-c3cccnc3)c2)c1

inhibition, < 30%:
COc1cc(C)cc(-c2nn(CC#N)cc2-c2ccc(-c3cccc(C(C)=O)c3)nc2)c1
Cc1cc(O)cc(-c2c(-c3ccnc(-c4cccnc4)c3)cnn2CC#N)c1
Cc1cc(O)cc(-c2nn(CC#N)cc2-c2ccnc(-c3ccc(C#N)cc3)c2)c1
CC(=O)c1ccccc1-c1cc(-c2cn(CC#N)nc2-c2cc(C)cc(O)c2)ccn1
COc1cc(C)cc(-c2c(-c3ccnc(-c4ccccc4C(C)=O)c3)cnn2CC#N)c1
COc1cc(C)cc(-c2c(-c3ccnc(-c4ccccc4NC(C)=O)c3)cnn2CC#N)c1
Cc1cc(O)cc(-c2nn(CC#N)cc2-c2ccnc(-c3ccc(Oc4ccccc4)cc3)c2)c1
Cc1cc(O)cc(-c2c(-c3ccnc(-c4ccccc4)c3)cnn2CC#N)c1
CC(=O)c1cccc(-c2ccc(-c3cn(CC#N)nc3-c3cc(C)cc(O)c3)cn2)c1
COc1cc(C)cc(-c2nn(CC#N)cc2-c2ccnc(-c3ccc(C(C)=O)cc3)c2)c1
CC(=O)c1cccc(-c2cc(-c3cn(CC#N)nc3-c3cc(C)cc(O)c3)ccn2)c1
COc1cc(C)cc(-c2nn(CC#N)cc2-c2ccnc(-c3cccc(NC(C)=O)c3)c2)c1
CC(=O)c1ccc(-c2cc(-c3cn(CC#N)nc3-c3cc(C)cc(O)c3)ccn2)cc1
COc1cc(C)cc(-c2c(-c3ccnc(-c4ccccc4)c3)cnn2CC#N)c1
COc1cc(C)cc(-c2nn(CC#N)cc2-c2ccnc(-c3ccc(N(C)C)cc3)c2)c1
COc1cc(C)cc(-c2nn(CC#N)cc2-c2ccnc(-c3cccc(C(C)=O)c3)c2)c1
COc1cc(C)cc(-c2c(-c3ccnc(-c4ccc(C(C)=O)cc4)c3)cnn2CC#N)c1
COc1cc(C)cc(-c2c(-c3ccc(-c4cccnc4)nc3)cnn2CC#N)c1
COc1cc(C)cc(-c2c(-c3ccnc(-c4cccnc4)c3)cnn2CC#N)c1
CC(=O)c1cccc(-c2cc(-c3cnn(CC#N)c3-c3cc(C)cc(O)c3)ccn2)c1
COc1cc(C)cc(-c2c(-c3ccc(-c4cccc(C(C)=O)c4)nc3)cnn2CC#N)c1
CC(=O)Nc1cccc(-c2cc(-c3cn(CC#N)nc3-c3cc(C)cc(O)c3)ccn2)c1
Cc1cc(O)cc(-c2c(-c3ccnc(-c4ccc(Oc5ccccc5)cc4)c3)cnn2CC#N)c1
CC(=O)c1ccccc1-c1ccc(-c2cnn(CC#N)c2-c2cc(C)cc(O)c2)cn1
COc1cc(C)cc(-c2nn(CC#N)cc2-c2ccnc(-c3ccccc3NC(C)=O)c2)c1
Cc1cc(O)cc(-c2nn(CC#N)cc2-c2ccc(-c3cccnc3)nc2)c1
COc1cc(C)cc(-c2c(-c3ccnc(-c4cccc(C(C)=O)c4)c3)cnn2CC#N)c1
CC(=O)Nc1ccccc1-c1cc(-c2cnn(CC#N)c2-c2cc(C)cc(O)c2)ccn1
CC(=O)c1cccc(-c2ccc(-c3cnn(CC#N)c3-c3cc(C)cc(O)c3)cn2)c1
CC(=O)c1ccc(-c2cc(-c3cnn(CC#N)c3-c3cc(C)cc(O)c3)ccn2)cc1
COc1cc(C)cc(-c2c(-c3ccnc(-c4ccc(C#N)cc4)c3)cnn2CC#N)c1
COc1cc(C)cc(-c2nn(CC#N)cc2-c2ccc(-c3cccnc3)nc2)c1
CC(=O)Nc1ccccc1-c1cc(-c2cn(CC#N)nc2-c2cc(C)cc(O)c2)ccn1
Cc1cc(O)cc(-c2nn(CC#N)cc2-c2ccnc(-c3ccc(N(C)C)cc3)c2)c1
COc1cc(C)cc(-c2c(-c3ccc(-c4ccccc4C(C)=O)nc3)cnn2CC#N)c1
COc1cc(C)cc(-c2nn(CC#N)cc2-c2ccnc(-c3ccc(Oc4ccccc4)cc3)c2)c1
CC(=O)c1ccccc1-c1ccc(-c2cn(CC#N)nc2-c2cc(C)cc(O)c2)cn1
Cc1cc(O)cc(-c2c(-c3ccnc(-c4ccc(C#N)cc4)c3)cnn2CC#N)c1
COc1cc(C)cc(-c2nn(CC#N)cc2-c2ccnc(-c3ccc(C#N)cc3)c2)c1
Cc1cc(O)cc(-c2nn(CC#N)cc2-c2ccnc(-c3ccccc3)c2)c1
COc1cc(C)cc(-c2c(-c3ccnc(-c4ccc(N(C)C)cc4)c3)cnn2CC#N)c1
COc1cc(C)cc(-c2c(-c3ccnc(-c4ccc(Oc5ccccc5)cc4)c3)cnn2CC#N)c1
CC(=O)Nc1cccc(-c2cc(-c3cnn(CC#N)c3-c3cc(C)cc(O)c3)ccn2)c1
COc1cc(C)cc(-c2c(-c3ccnc(-c4cccc(NC(C)=O)c4)c3)cnn2CC#N)c1
COc1cc(C)cc(-c2nn(CC#N)cc2-c2ccnc(-c3cccnc3)c2)c1
COc1cc(C)cc(-c2nn(CC#N)cc2-c2ccc(-c3ccccc3C(C)=O)nc2)c1
COc1cc(C)cc(-c2nn(CC#N)cc2-c2ccnc(-c3ccccc3C(C)=O)c2)c1
Cc1cc(O)cc(-c2c(-c3ccnc(-c4ccc(N(C)C)cc4)c3)cnn2CC#N)c1
CC(=O)c1ccccc1-c1cc(-c2cnn(CC#N)c2-c2cc(C)cc(O)c2)ccn1
COc1cc(C)cc(-c2nn(CC#N)cc2-c2ccnc(-c3ccccc3)c2)c1
